# Measurements published in patent publication US20210261475A1, “UREA-BASED COMPOSITION COMPRISING ELEMENTAL SULPHUR AND METHOD FOR THE MANUFACTURE THEREOF” (YARA INTERNATIONAL ASA, priority 2018, published 2021).
# Entries after “also recorded” stand apart in the source; their conditions may differ.
# Columns and labels:
# Assay type in all cases: physicochemical
# [1] = Volatilization measurements (ammonia release, 2 L diffusion kit, Draeger tube); settings: YaraVera Amidas product comprising 462 ppm nBTPT, treated with stabilizer (FIG. 1, Table 1)
# From the text: Through the lid, a […] tube is placed for the measurement of vol % ammonia. The […] tube turns from yellow to bleu/purple when ammonia is absorbed by the tube. The amount of vol % ammonia released can be followed in time. Experiment 1 defines the problem.
# [2] = pH of MgSO4 grades
# [3] = nBTPT stability on YaraVera Amidas (UAS) product during storage, HPLC analysis of nBTPT content
# Protocol: For lab scale experiments, 1.2 kg of solid fertilizer material was added to a lab scale drum. […] A residence time of 10 minutes was applied and the rotating speed of the drum was consequently the same in each experiment. […] Before use, the moisture-repellent coating was preheated to 80° C. Larger scale experiments with amounts up to 40 kg of fertilizer material were performed in a concrete mixer. The samples were stored under several conditions, dependent on the type of samples: • Bagged at room temperature (18-25° C.) • Bagged at 40° C. • Open to air at room temperature (18-25° C.) […]
smiles,measurement,setting,value
O=S(=O)([O-])[O-].[Ca+2] [CaSO4],Ammonia release,[1],no ammonia release
"[O]=[Ca] [CaO, calcium oxide]",Ammonia release,[1],producing ammonia
O=S(=O)([O-])[O-].[Mg+2] [MgSO4 99.999%],pH,[2],6.1
"O=S(=O)([O-])[O-].[Na+].[Na+] [Na2SO4, reference compound]",Stability of nBTPT (stabilizing effect),"[3]; YaraVera Amidas with 462 ppm nBTPT, open plastic containers at room temperature for 21 days (FIG. 3)",negative effect on the stability of nBTPT
"[O]=[Mg] [MgO, magnesium oxide, reference compound]",Ammonia release,[1],producing ammonia
same,Stability of nBTPT (stabilizing effect),"[3]; YaraVera Amidas with 462 ppm nBTPT, MgSO4/MgO combinations (FIG. 4)",more effective than CaO
O=S(=O)([O-])[O-].[Mg+2] [MgSO4 99.5%],pH,[2],8.5
"O=S(=O)([O-])[O-].[Mg+2] [MgSO4, magnesium sulphate]",Ammonia release,[1],no ammonia release; also recorded: no ammonia is generated
same,Stability of nBTPT (stabilizing effect),"[3]; UAS with 462 ppm nBTPT, open to air at room temperature 40 days (FIG. 2A) and in bags at 40° C. 8 days (FIG. 2B)",comparable with the effect of the prior art compound (CaO)
same,Stabilizing effect,[3]; more than 1 weight % magnesium sulphate in the composition,did not produce a proportionally better stabilizing effect
